Measurements from US20090275499A1, “NONSTRUCTURAL PROTEIN NS1 AS A NOVEL THERAPEUTIC TARGET AGAINST FLAVIVIRUSES” (priority 2008, published 2009).
Entries after “also recorded” stand apart in the source; their conditions may differ.

Legend:
DENV sNS1 secretion [1] = details: DENV-infected Vero cells; Flamand et al., 1999; cited from earlier work
DENV sNS1 secretion [2] = system: DENV sNS1 secretion
Protocol: Vero cells were infected with DENV-1 at an MOI of 1 for 2 h at 37° C. An uninfected control was included. At seven hours post infection, cells were either mock-treated or treated with D-threo-1-phenyl-2-palmitoylamino-3-pyrrolidino-1-propanol (P4; Calbiochem, San Diego, Calif.) at 2 or 5 μM, combined or not with 1 mM DMJ (Calbiochem, San Diego, Calif.). At 24 hours post infection, cells were washed and incubated for 1 h in methionine/cysteine-free DMEM before metabolically labeling proteins for 4 h in methionine/cysteine-free DMEM supplemented with a mix of ^35S-labeled methionine/cysteine. The NS1 protein was then immunoprecipitated from cell lysates prepared in 25 mM Tris-HCl pH 7.6, 150 mM NaCl, 1% NP-40, 1% sodium deoxycholate, 0.1% SDS, or from the supernatant, with anti-NS1 MAb 13A1 (kindly provided by Dr. Robert Putnak). Immunoprecipitated proteins were separated by SDS-PAGE and detected on an X-ray film.

Vero cells = details: 5 μM P4, Vero cells
[3] = system: TNF-α-mediated induction of E-selectin expression; experiment: TNF-α-mediated induction of E-selectin expression in HUVEC (cell-based ELISA); set-up: species or system human; details: TNF-α 10 ng/ml pre-incubated with PMB
DENV sNS1 protein = experiment: Inhibition of DENV sNS1-mediated endothelial cell activation (E-selectin cell-based ELISA in HUVEC); set-up: species or system Dengue virus (DENV-1)
Protocol: Activation of endothelial cells by the DENV sNS1 protein has been monitored by the production of adhesion molecule E-selectine, as previously described (Kayal et al., 1999). Briefly, HUVEC cell monolayers were incubated with various concentrations of the purified sNS1 protein for different periods of time. Cells were washed once with warm M199 medium supplemented with 20% FCS and twice with serum-free M199 before fixation for 10 min in ice-cold PBS containing 4% paraformaldehyde. Cells were then rinsed with PBS and treated with a 10% bovine serum albumin (BSA) solution in PBS to reduce non-specific binding of antibodies. Plates were then sequentially incubated for 2 h at room temperature (RT) with primary anti-E-selectin monoclonal antibody (BBA2, R&D Systems, Minneapolis, Minn.) at a dilution of 1:2000 in PBS containing 5% BSA (PBS/BSA), and a secondary peroxidase-conjugated rabbit anti-mouse IgG (Sigma, St. Louis, Mo.) at a dilution of 1:4000 in PBS/BSA. After extensive washes in PBS/BSA and PBS alone, bound antibodies were detected using the TMB Microwell peroxidase substrate system (KPL). The reaction was stopped after 3-5 min by addition of 2.5 N sulfuric acid and the absorbance values were read at a wavelength of 450 nm. […]

OC[C@H]1NC[C@@H](O)[C@@H](O)[C@@H]1O [DMJ, deoxymannojirymicin]
sNS1 secretion, DMJ alone (DENV sNS1 secretion [1]): impairs sNS1 secretion | sNS1 secretion, combination of P4 and DMJ (DENV sNS1 secretion [2]; P4 2 or 5 μM + DMJ 1 mM, DENV-infected Vero (kidney) cells): additional effect on P4 inhibition

CCCCCCCCCCCCCCCC(=O)N[C@H](CN1CCCC1)[C@H](O)c1ccccc1 [P4, D-threo-1-phenyl-2-palmitoylamino-3-pyrrolidino-1-propanol]
secretion of sNS1 (DENV sNS1 secretion [2]; P4 alone, DENV-infected Vero cells, MOI 1, effect stated at 5 μM P4): significantly reduced; also recorded: interferes with sNS1 secretion | cell viability (Vero cells): without compromising cell viability

polymyxin B [PMB]
TNF-α-mediated induction of E-selectin expression [3]: did not show any effect | expression of E-selectin in response to the sNS1 protein (DENV sNS1 protein; HUVEC pulse treated with sNS1 (10 μg/ml) pre-incubated with PMB 2 and 10 μg/ml, 15 min-6 h, fixed at 6 h): repressive effect | sNS1-induced HUVEC (endothelial cell) activation (DENV sNS1 protein; no detectable LPS in purified sNS1 preparations): very efficiently block endothelial cell activation by sNS1; also recorded: abrogated the ability of DENV sNS1 to activate HUVEC; also recorded: blocks sNS1-induced HUVEC activation
